According to PubChem BioAssay AID330 (DTP/NCI, 2004):
“And” between values parts separate entries of the source, which are not always exact repeats. Equal entries are not always repeated. Inconclusive results and toxic doses are left out. The calls were made as follows: active = survival T/C of 150% or more; inactive = T/C below 125% in these data.

System: P388 leukemia ip, CD2F1 mice, survival T/C
Assay: NCI In Vivo Anticancer Drug Screen. Data for tumor model P388 Leukemia (intraperitoneal) in CD2F1 (CDF1) mice
Settings: endpoint: median survival time, higher = longer survival
Method in brief: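 Mice carrying the transplanted tumor received test compound or vehicle. Survival was recorded in each group, and the value is the treated-group measurement divided by that of the vehicle-treated control group.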

[1] = dose: 60.0 mg/kg/injection, schedule: Q01DX005 (ip), vehicle: saline
[2] = dose: 50.0 mg/kg/injection, schedule: Q01DX009 (ip), vehicle: Klucel (hydroxypropylcellulose) (HPC)
[3] = dose: 100.0 mg/kg/injection, schedule: Q01DX009 (ip), vehicle: Klucel (hydroxypropylcellulose) (HPC)
[4] = dose: 200.0 mg/kg/injection, schedule: Q01DX009 (ip), vehicle: Klucel (hydroxypropylcellulose) (HPC)
[5] = dose: 50.0 mg/kg/injection, schedule: Q01DX009 (ip), vehicle: saline
[6] = dose: 100.0 mg/kg/injection, schedule: Q01DX009 (ip), vehicle: saline
[7] = dose: 200.0 mg/kg/injection, schedule: Q01DX009 (ip), vehicle: saline
[8] = dose: 50.0 mg/kg/injection, schedule: Q01DX005 (ip), vehicle: Klucel (hydroxypropylcellulose) (HPC)
[9] = dose: 100.0 mg/kg/injection, schedule: Q01DX005 (ip), vehicle: Klucel (hydroxypropylcellulose) (HPC)
[10] = dose: 200.0 mg/kg/injection, schedule: Q01DX005 (ip), vehicle: Klucel (hydroxypropylcellulose) (HPC)
[11] = dose: 60.0 mg/kg/injection, schedule: Q01DX005 (ip), vehicle: saline with Tween-80
[12] = dose: 120.0 mg/kg/injection, schedule: Q01DX005 (ip), vehicle: saline with Tween-80
[13] = dose: 240.0 mg/kg/injection, schedule: Q01DX005 (ip), vehicle: saline with Tween-80
[14] = dose: 60.0 mg/kg/injection, schedule: Q01DX005 (ip), vehicle: Klucel (hydroxypropylcellulose) (HPC)
[15] = dose: 120.0 mg/kg/injection, schedule: Q01DX005 (ip), vehicle: Klucel (hydroxypropylcellulose) (HPC)
[16] = dose: 240.0 mg/kg/injection, schedule: Q01DX005 (ip), vehicle: Klucel (hydroxypropylcellulose) (HPC)
[17] = dose: 50.0 mg/kg/injection, schedule: Q01DX005 (ip), vehicle: saline with Tween-80
[18] = dose: 100.0 mg/kg/injection, schedule: Q01DX005 (ip), vehicle: saline with Tween-80

Measured: T/C

NC(N)=N/N=C/c1ccc(-c2ccccc2)cc1
inactive: dose: 6.25 mg/kg/injection, schedule: Q01DX009 (ip), vehicle: saline with Tween-80 104 % of control | dose: 6.25 mg/kg/injection, schedule: Q04DX003 (ip), vehicle: saline with Tween-80 100 % of control | dose: 12.5 mg/kg/injection, schedule: Q01DX009 (ip), vehicle: saline with Tween-80 104 % of control | dose: 12.5 mg/kg/injection, schedule: Q04DX003 (ip), vehicle: saline with Tween-80 100 % of control | dose: 25.0 mg/kg/injection, schedule: Q04DX003 (ip), vehicle: saline with Tween-80 100 % of control

CCc1cc(-c2cc(CC)nc(N)n2)nc(N)n1
inactive: [1] 97 % of control | dose: 120.0 mg/kg/injection, schedule: Q01DX005 (ip), vehicle: saline 104 % of control | dose: 240.0 mg/kg/injection, schedule: Q01DX005 (ip), vehicle: saline 100 % of control

CC1C(c2ccccc2)OCCN1C=NC#N (centres undefined)
inactive: [2] 102 % of control | [3] 103 % of control | [4] 103 % of control

COc1ccc(C(=O)Oc2ccc[nH]c2=O)cc1
inactive: [5] 102 % of control and 107 % of control | [6] 99 % of control and 102 % of control | [7] 98 % of control and 102 % of control | dose: 400.0 mg/kg/injection, schedule: Q01DX009 (ip), vehicle: saline 104 % of control and 93 % of control

OC(C1=CCCCC1)(c1ccccc1)c1ccccc1
inactive: dose: 25.0 mg/kg/injection, schedule: Q01DX005 (ip), vehicle: Klucel (hydroxypropylcellulose) (HPC) 98 % of control | [8] 100 % of control | [9] 90 % of control | [10] 91 % of control

O=C1CC(c2ccccc2)=NO1
inactive: dose: 100.0 mg/kg/injection, schedule: Q04DX003 (ip), vehicle: Klucel (hydroxypropylcellulose) (HPC) 94 % of control | dose: 200.0 mg/kg/injection, schedule: Q04DX003 (ip), vehicle: Klucel (hydroxypropylcellulose) (HPC) 99 % of control | dose: 400.0 mg/kg/injection, schedule: Q04DX003 (ip), vehicle: Klucel (hydroxypropylcellulose) (HPC) 100 % of control

NN(C(=O)c1ccccc1)C1CCCCC1
inactive: dose: 12.5 mg/kg/injection, schedule: Q04DX003 (ip), vehicle: saline 95 % of control | dose: 25.0 mg/kg/injection, schedule: Q04DX003 (ip), vehicle: saline 104 % of control | dose: 50.0 mg/kg/injection, schedule: Q04DX003 (ip), vehicle: saline 100 % of control

O=c1[nH]c2ccccc2n1C1CCN(CCOc2ccccc2)CC1
inactive: [2] 95 % of control | [3] 102 % of control | [4] 95 % of control

CC1C(=O)OC2CC[N+]3(C(=O)C(F)(F)F)CC4OC4(COC(=O)C(C)(O)C1(C)O)C23 (centres undefined)
inactive: dose: 60.0 mg/kg/injection, schedule: Q01DX005 (ip), vehicle: suspension in saline 104 % of control | dose: 120.0 mg/kg/injection, schedule: Q01DX005 (ip), vehicle: suspension in saline 93 % of control | dose: 240.0 mg/kg/injection, schedule: Q01DX005 (ip), vehicle: suspension in saline 92 % of control

CCCCCCCC(=O)Nc1cccc(C)c1C
inactive: dose: 100.0 mg/kg/injection, schedule: Q04DX003 (ip), vehicle: saline with Tween-80 90 % of control | dose: 200.0 mg/kg/injection, schedule: Q04DX003 (ip), vehicle: saline with Tween-80 95 % of control

CNC(=O)C1OCCOCCOC(C(=O)NC)C(C(=O)NC)OCCOCCOC1C(=O)NC (centres undefined)
inactive: [8] 96 % of control | [9] 98 % of control | [10] 97 % of control

CSC1(C)C(=O)Nc2cccc([N+](=O)[O-])c21 (centres undefined)
inactive: dose: 100.0 mg/kg/injection, schedule: Q01DX001 (ip), vehicle: saline with Tween-80 100 % of control | dose: 200.0 mg/kg/injection, schedule: Q01DX001 (ip), vehicle: saline with Tween-80 93 % of control | dose: 400.0 mg/kg/injection, schedule: Q01DX001 (ip), vehicle: saline with Tween-80 100 % of control

FC(F)(F)c1ccc(C2(c3ccccc3)C=C(c3ccccc3)SC(c3ccccc3)=C2)cc1
inactive: [2] 102 % of control | [3] 94 % of control | [4] 97 % of control

CCOC(=O)C(C#N)C(=N)C1CC(C)(C)OC1=O (centres undefined)
inactive: [11] 100 % of control | [12] 103 % of control | [13] 94 % of control

NC(=O)C[C@H](NP(=S)(c1ccccc1)c1ccccc1)C(=O)O
inactive: [2] 102 % of control | [3] 98 % of control | [4] 110 % of control

COC1OC(COC(=O)c2ccccc2)C(=O)C(OC(=O)c2ccccc2)C1N(O)c1ccccc1 (centres undefined)
inactive: dose: 7.5 mg/kg/injection, schedule: Q01DX005 (ip), vehicle: Klucel (hydroxypropylcellulose) (HPC) 99 % of control | dose: 15.0 mg/kg/injection, schedule: Q01DX005 (ip), vehicle: Klucel (hydroxypropylcellulose) (HPC) 104 % of control | dose: 30.0 mg/kg/injection, schedule: Q01DX005 (ip), vehicle: Klucel (hydroxypropylcellulose) (HPC) 95 % of control

O=c1oc2c(cc1Cl)CCCC2
inactive: [8] 96 % of control | [9] 101 % of control | [10] 103 % of control

CC1(C)COC2(OCC(COc3ccccc3)O2)C1O (centres undefined)
inactive: [14] 104 % of control | [15] 98 % of control | [16] 98 % of control

CC(C)(C)c1ccc(NC(=O)c2ccccc2N)cc1
inactive: [17] 101 % of control | [18] 97 % of control | dose: 200.0 mg/kg/injection, schedule: Q01DX005 (ip), vehicle: saline with Tween-80 92 % of control

O=C(NC(Cc1ccc(Br)cc1)C(=O)O)c1cccc(Cl)c1 (centres undefined)
inactive: dose: 50.0 mg/kg/injection, schedule: Q01DX005 (ip), vehicle: saline 100 % of control | dose: 100.0 mg/kg/injection, schedule: Q01DX005 (ip), vehicle: saline 101 % of control

O=[N+]([O-])c1cccc(NC(c2ccccc2)S(=O)(=O)O)c1 (centres undefined)
inactive: [5] 104 % of control | [6] 114 % of control | [7] 106 % of control

Cc1ccc(N2C(=O)C3CSCN3C2=O)cc1 (centres undefined)
inactive: [11] 101 % of control | [12] 97 % of control | [13] 92 % of control

O=C(/C=C/c1ccc(OCc2ccccc2)cc1)c1ccc([N+](=O)[O-])cc1
inactive: dose: 50.0 mg/kg/injection, schedule: Q01DX009 (ip), vehicle: saline with Tween-80 99 % of control | dose: 100.0 mg/kg/injection, schedule: Q01DX009 (ip), vehicle: saline with Tween-80 104 % of control | dose: 200.0 mg/kg/injection, schedule: Q01DX009 (ip), vehicle: saline with Tween-80 102 % of control

COC1C(O)C(CO)OC1n1ccc(NC(=O)c2ccccc2)nc1=O (centres undefined)
inactive: [14] 98 % of control and 93 % of control | [15] 94 % of control | [16] 91 % of control and 93 % of control

c1ccc2c(c1)N=NN1CCCOC21 (centres undefined)
inactive: [11] 100 % of control | [12] 95 % of control | [13] 99 % of control

C[N+]1(Cc2ccccc2)C2CCC(O)C1CC2 (centres undefined)
inactive: dose: 15.0 mg/kg/injection, schedule: Q01DX005 (ip), vehicle: saline 103 % of control | dose: 30.0 mg/kg/injection, schedule: Q01DX005 (ip), vehicle: saline 100 % of control | [1] 102 % of control

COc1cc2cc(c1Cl)N(C)C(=O)CC(O)C1(C)OC1C(C)C1CC(O)(NC(=O)O1)C(OC)/C=C/C=C(C)C2OC (centres undefined)
inactive: dose: 4.0 micrograms/kg/injection, schedule: Q01DX009 (ip), vehicle: distilled water + Tween-80 + alcohol 97 % of control | dose: 8.0 micrograms/kg/injection, schedule: Q01DX009 (ip), vehicle: distilled water + Tween-80 + alcohol 104 % of control | dose: 16.0 micrograms/kg/injection, schedule: Q01DX009 (ip), vehicle: distilled water + Tween-80 + alcohol 97 % of control | dose: 32.0 micrograms/kg/injection, schedule: Q01DX009 (ip), vehicle: distilled water + Tween-80 + alcohol 107 % of control | dose: 32.0 micrograms/kg/injection, schedule: Q01DX009 (ip), vehicle: distilled water + alcohol 99 % of control | dose: 64.0 micrograms/kg/injection, schedule: Q01DX009 (ip), vehicle: distilled water + alcohol 101 % of control | dose: 128.0 micrograms/kg/injection, schedule: Q01DX009 (ip), vehicle: distilled water + alcohol 101 % of control

c1nnc2c3c4c(sc3ncn12)CCCC4
inactive: [17] 97 % of control | [18] 91 % of control
